Tests used:
Experiment in all cases: relative viability (nuclei count vs DMSO), 5 days (fraction); higher = more cells survive
Axitinib + Lapatinib = compound: CNC(=O)c1ccccc1Sc1ccc2c(/C=C/c3ccccn3)n[nH]c2c1 [Axitinib] + CS(=O)(=O)CCNCc1ccc(-c2ccc3ncnc(Nc4ccc(OCc5cccc(F)c5)c(Cl)c4)c3c2)o1 [Lapatinib] (partner 2 µM)
Procedure, shortened: (§1)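 One day after seeding in 1536-well plates, lung cancer cell lines were dosed by pin tool. Dosing was either single-drug or a fixed anchor-drug dose plus five library-drug doses (not always all listed) in √10 steps. After 5 days, nuclei were stained in one fix-and-stain step and counted on 4× images, and relative viability is the nuclei count of treated wells over that of vehicle wells, given as the median of duplicate plates.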

Axitinib + Dasatinib = compound: CNC(=O)c1ccccc1Sc1ccc2c(/C=C/c3ccccn3)n[nH]c2c1 [Axitinib] + Cc1nc(Nc2ncc(C(=O)Nc3c(C)cccc3Cl)s2)cc(N2CCN(CCO)CC2)n1 [Dasatinib] (partner 0.075 µM)
Procedure, shortened: as §1

[1] = compound: CC1=CC=C(C=C1)C(=O)CN2C3=C(CCCC3)SC2=N [Pifithrin_alpha] + CS(=O)(=O)CCNCc1ccc(-c2ccc3ncnc(Nc4ccc(OCc5cccc(F)c5)c(Cl)c4)c3c2)o1 [Lapatinib] (partner 2 µM)
Procedure, shortened: as §1

Axitinib + Trametinib = compound: CNC(=O)c1ccccc1Sc1ccc2c(/C=C/c3ccccn3)n[nH]c2c1 [Axitinib] + CC(=O)Nc1cccc(-n2c(=O)n(C3CC3)c(=O)c3c(Nc4ccc(I)cc4F)n(C)c(=O)c(C)c32)c1 [Trametinib] (partner 0.02 µM)
Procedure, shortened: as §1

Cell Line | relative viability (Axitinib + Lapatinib; first compound 0.005 µM) | relative viability (Axitinib + Lapatinib; first compound 0.01581 µM) | relative viability (Axitinib + Lapatinib; first compound 0.05 µM) | relative viability (Axitinib + Lapatinib; first compound 0.1581 µM) | relative viability (Axitinib + Lapatinib; first compound 0.5 µM) | relative viability (Axitinib + Dasatinib; first compound 0.005 µM) | relative viability (Axitinib + Dasatinib; first compound 0.01581 µM) | relative viability (Axitinib + Dasatinib; first compound 0.05 µM) | relative viability (Axitinib + Dasatinib; first compound 0.1581 µM) | relative viability (Axitinib + Dasatinib; first compound 0.5 µM) | relative viability ([1]; first compound 1 µM) | relative viability ([1]; first compound 3.162 µM) | relative viability ([1]; first compound 10 µM) | relative viability ([1]; first compound 31.62 µM) | relative viability ([1]; first compound 100 µM) | relative viability (Axitinib + Trametinib; first compound 0.005 µM) | relative viability (Axitinib + Trametinib; first compound 0.01581 µM) | relative viability (Axitinib + Trametinib; first compound 0.05 µM) | relative viability (Axitinib + Trametinib; first compound 0.1581 µM) | relative viability (Axitinib + Trametinib; first compound 0.5 µM)
EMC-BAC-2 | 0.917 | 0.869 | 0.947 | 0.915 | 0.803 | 0.353 | 0.327 | 0.315 | 0.379 | 0.383 | 0.87 | 0.905 | 0.864 | 0.623 | 0.928 | 0.952 | 0.905 | 0.898 | 0.926 | 0.88
BEN | 0.695 | 0.648 | 0.592 | 0.563 | 0.497 | 0.293 | 0.264 | 0.314 | 0.365 | 0.263 | 0.522 | 0.769 | 0.686 | 0.733 | 0.873 | 1.33 | 1.04 | 0.885 | 0.992 | 1.01
NCI-H1755 | 1.06 | 0.998 | 1.06 | 1.04 | 0.99 | 0.444 | 0.436 | 0.479 | 0.439 | 0.388 | 0.96 | 1.01 | 0.966 | 0.812 | 1.23 | 0.806 | 0.764 | 0.786 | 0.822 | 0.789
LU99A | 0.879 | 0.987 | 0.885 | 1.04 | 1.04 | 0.626 | 0.563 | 0.589 | 0.577 | 0.475 | 0.852 | 1.21 | 1.12 | – | 1.18 | 0.547 | 0.463 | 0.534 | 0.541 | 0.511
NCI-H1793 | 0.768 | 0.609 | 1.17 | 0.571 | 0.526 | 0.406 | 0.405 | 0.394 | 0.293 | 0.301 | 0.692 | 0.716 | 0.505 | 0.867 | 0.739 | 0.382 | 0.374 | 0.469 | 0.408 | 0.447
NCI-H460 | 1.15 | 0.999 | 0.809 | 0.953 | 1.35 | 0.429 | 0.515 | 0.607 | 0.49 | 0.441 | 1.2 | 1.21 | 1.1 | – | 0.533 | 0.165 | 0.177 | 0.188 | 0.297 | 0.253
SK-LU-1 | 0.976 | 0.951 | 0.942 | 0.835 | 1.39 | 0.163 | 0.186 | 0.171 | 0.181 | 0.215 | 0.937 | 0.911 | 0.948 | 0.599 | 0.935 | 0.515 | 0.631 | 0.478 | 0.412 | 0.459
HARA | 0.63 | 0.593 | 0.718 | 0.621 | 0.602 | 0.211 | 0.2 | 0.293 | 0.246 | 0.253 | 0.675 | 0.625 | 0.759 | 0.589 | 0.478 | 0.727 | 0.707 | 0.768 | 0.618 | 0.949

From the supplement of paper PMC10307832
